Data: US20230257396A1, “MACROCYCLES AND THEIR USE” (BLOSSOMHILL THERAPEUTICS, INC., priority 2020, published 2023)

What was measured:
Assay in all cases: KINOMEscan kinase binding assay (Eurofins/DiscoveRx), % Ctrl
Settings in all cases: 1 μM
kinases [1] = biological target: T1, kinases (Homo sapiens, UniProt P36888, N841I)
T1 construct: purchased Eurofins/DiscoveRx; host or cells: E. coli BL21-derived host (T7 phage display) for most kinases; HEK-293 for the rest
T1 sequence (P36888 27-993 N841I): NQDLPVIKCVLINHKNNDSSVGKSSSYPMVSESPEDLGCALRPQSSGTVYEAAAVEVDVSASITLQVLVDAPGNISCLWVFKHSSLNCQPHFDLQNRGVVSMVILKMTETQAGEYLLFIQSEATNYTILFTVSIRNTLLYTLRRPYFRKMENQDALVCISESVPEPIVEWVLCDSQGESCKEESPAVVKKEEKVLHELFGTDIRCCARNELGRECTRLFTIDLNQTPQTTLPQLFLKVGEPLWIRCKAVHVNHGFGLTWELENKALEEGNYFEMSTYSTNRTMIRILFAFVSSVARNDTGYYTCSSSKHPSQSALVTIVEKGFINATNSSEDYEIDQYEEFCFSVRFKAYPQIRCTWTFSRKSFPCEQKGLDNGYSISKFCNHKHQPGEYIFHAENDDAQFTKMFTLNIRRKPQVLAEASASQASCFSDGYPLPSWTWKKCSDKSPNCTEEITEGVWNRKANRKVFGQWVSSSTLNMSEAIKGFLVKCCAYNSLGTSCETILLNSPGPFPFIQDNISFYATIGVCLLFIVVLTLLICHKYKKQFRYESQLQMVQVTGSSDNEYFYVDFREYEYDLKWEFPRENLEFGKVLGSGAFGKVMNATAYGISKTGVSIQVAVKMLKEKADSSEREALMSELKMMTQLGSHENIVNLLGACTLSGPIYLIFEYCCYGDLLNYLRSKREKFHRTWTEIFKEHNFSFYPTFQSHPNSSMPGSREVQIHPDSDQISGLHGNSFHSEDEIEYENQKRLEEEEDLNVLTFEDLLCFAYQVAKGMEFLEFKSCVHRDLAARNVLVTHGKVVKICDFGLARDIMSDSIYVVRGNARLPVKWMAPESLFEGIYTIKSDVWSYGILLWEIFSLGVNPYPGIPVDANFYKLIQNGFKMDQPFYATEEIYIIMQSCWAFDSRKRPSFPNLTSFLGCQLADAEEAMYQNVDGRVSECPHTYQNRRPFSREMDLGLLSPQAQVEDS
Method in brief: (§1)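 Competition binding: DNA- or phage-tagged kinases (T7 phage in E. coli BL21, or HEK-293-expressed) with immobilized biotinylated ligand beads and test compound, 1 h at room temperature. Bead-bound kinase eluted and quantified by qPCR; % Ctrl = (compound − positive control)/(negative control − positive control) ×100 at a single compound concentration.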

kinases [2] = biological target: T2, kinases (Homo sapiens, UniProt P10721)
T2 construct: purchased Eurofins/DiscoveRx; host or cells: E. coli BL21-derived host (T7 phage display) for most kinases; HEK-293 for the rest
T2 sequence (P10721 26-976): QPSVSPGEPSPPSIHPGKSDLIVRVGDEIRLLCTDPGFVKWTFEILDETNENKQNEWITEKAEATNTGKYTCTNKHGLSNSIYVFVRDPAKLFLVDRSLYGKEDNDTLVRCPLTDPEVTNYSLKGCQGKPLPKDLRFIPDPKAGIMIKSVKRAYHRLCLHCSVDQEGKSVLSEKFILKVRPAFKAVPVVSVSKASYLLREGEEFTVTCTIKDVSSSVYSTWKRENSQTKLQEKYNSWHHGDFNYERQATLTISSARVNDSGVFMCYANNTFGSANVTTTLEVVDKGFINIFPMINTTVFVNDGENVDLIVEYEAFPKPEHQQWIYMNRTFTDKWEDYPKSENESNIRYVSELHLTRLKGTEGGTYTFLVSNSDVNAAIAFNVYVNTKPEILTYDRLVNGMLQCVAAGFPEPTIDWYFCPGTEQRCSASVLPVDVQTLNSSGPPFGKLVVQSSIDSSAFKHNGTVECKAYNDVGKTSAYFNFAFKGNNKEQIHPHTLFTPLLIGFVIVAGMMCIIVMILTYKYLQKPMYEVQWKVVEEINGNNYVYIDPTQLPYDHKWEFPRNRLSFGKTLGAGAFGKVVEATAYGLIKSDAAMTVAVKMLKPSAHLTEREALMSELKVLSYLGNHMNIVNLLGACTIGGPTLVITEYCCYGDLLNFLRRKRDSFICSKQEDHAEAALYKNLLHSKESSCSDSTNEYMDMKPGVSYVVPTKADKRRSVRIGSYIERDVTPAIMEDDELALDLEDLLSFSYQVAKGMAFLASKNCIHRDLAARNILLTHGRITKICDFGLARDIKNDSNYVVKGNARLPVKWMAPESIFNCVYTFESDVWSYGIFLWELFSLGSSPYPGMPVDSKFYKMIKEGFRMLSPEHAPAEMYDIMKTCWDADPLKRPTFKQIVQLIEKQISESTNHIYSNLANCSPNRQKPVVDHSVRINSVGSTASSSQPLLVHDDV
Method in brief: as §1

kinases [3] = tested on: kinases
Method in brief: as §1

kinases [4] = biological target: T3, kinases (Homo sapiens, UniProt P00519, Q252H)
T3 construct: purchased Eurofins/DiscoveRx; host or cells: E. coli BL21-derived host (T7 phage display) for most kinases; HEK-293 for the rest
Method in brief: as §1

kinases [5] = biological target: T4, kinases (Homo sapiens, UniProt P10721, T670I/V559D)
T4 construct: purchased Eurofins/DiscoveRx; host or cells: E. coli BL21-derived host (T7 phage display) for most kinases; HEK-293 for the rest
T4 sequence (P10721 26-976 V559D/T670I): as the sequence (P10721 26-976) above, with V534D, T645I counted along it
Method in brief: as §1

kinases [6] = biological target: T5, kinases (Homo sapiens, UniProt P00519, T315I)
T5 construct: purchased Eurofins/DiscoveRx; host or cells: E. coli BL21-derived host (T7 phage display) for most kinases; HEK-293 for the rest
Method in brief: as §1

kinases [7] = biological target: T6, kinases (Homo sapiens, UniProt P00533, G719C)
T6 construct: purchased Eurofins/DiscoveRx; host or cells: E. coli BL21-derived host (T7 phage display) for most kinases; HEK-293 for the rest
Method in brief: as §1

[8] = target EGFR(L747-E749del, A750P)
[9] = target EGFR(L747-S752del, P753S)
[10] = target EGFR(L747-T751del, Sins)
[11] = target ABL1(Q252H)-nonphosphorylated
[12] = target ABL1(Q252H)-phosphorylated
[13] = target ABL1(T315I)-nonphosphorylated
[14] = target ABL1(T315I)-phosphorylated

Structure (SMILES)	% Ctrl, FLT3(N841I) (kinases [1]; FLT3(N841I))	% Ctrl, KIT (kinases [2]; KIT)	% Ctrl, KIT-autoinhibited (kinases [2]; KIT-autoinhibited)	% Ctrl, EGFR(L747-E749del, A750P) (kinases [3]; EGFR(L747-E749del, A750P))	% Ctrl, EGFR(L747-S752del, P753S) (kinases [3]; EGFR(L747-S752del, P753S))	% Ctrl, EGFR(L747-T751del, Sins) (kinases [3]; EGFR(L747-T751del, Sins))	% Ctrl, FLT3(ITD) (kinases [3]; FLT3(ITD))	% Ctrl, FLT3(ITD, D835V) (kinases [3]; FLT3(ITD, D835V))	% Ctrl, FLT3(ITD, F691L) (kinases [3]; FLT3(ITD, F691L))	% Ctrl, ABL1(Q252H)-nonphosphorylated (kinases [4]; ABL1(Q252H)-nonphosphorylated)	% Ctrl, ABL1(Q252H)-phosphorylated (kinases [4]; ABL1(Q252H)-phosphorylated)	% Ctrl, KIT(V559D, T670I) (kinases [5]; KIT(V559D, T670I))	% Ctrl, ABL1(T315I)-nonphosphorylated (kinases [6]; ABL1(T315I)-nonphosphorylated)	% Ctrl, ABL1(T315I)-phosphorylated (kinases [6]; ABL1(T315I)-phosphorylated)	% Ctrl, EGFR(G719C) (kinases [7]; EGFR(G719C))	also measured
Cc1cc2c([nH]1)/C=C1\C(=O)Nc3ccc(cc31)-c1ccnn1CCOCCNC2=O [Ex.39, [19a(20)Z]-2-methyl-6,7,9,10-tetrahydro-1H-15,17-(ethanediylidene)pyrazolo[1,5-d]dipyrrolo[3,4-h:2′,3′-k][1,4,14]oxadiazacyclohexadecine-4,19(5H,18H)-dione]	83 % Ctrl	90 % Ctrl	86 % Ctrl	68 % Ctrl	66 % Ctrl	60 % Ctrl	89 % Ctrl	17 % Ctrl	27 % Ctrl	84 % Ctrl	93 % Ctrl	85 % Ctrl	95 % Ctrl	26 % Ctrl	70 % Ctrl	–
Cc1nn(C)c2c1-c1ccc3c(c1)/C(=C/c1[nH]ccc1C(=O)N(C)CCCO2)C(=O)N3 [Ex. 150, [3a(4)Z]-9,14,16-trimethyl-10,11,13,14-tetrahydro-2H-1,17-(ethanediylidene)pyrazolo[4,3-m]dipyrrolo[3,2-f:3′,4′-i][1,4]oxazacyclopentadecine-3,8(5H,9H)-dione]	–	–	–	–	–	–	–	–	–	–	–	–	–	–	–	% Ctrl, FLT3(N841I) (kinases [1]; target FLT3(N841I)): 19 % Ctrl; % Ctrl, KIT-autoinhibited (kinases [2]; target KIT-autoinhibited): 100 % Ctrl; % Ctrl, KIT (kinases [2]; target KIT): 97 % Ctrl; % Ctrl, EGFR(L747-E749del, A750P) (kinases [3]; [8]): 94 % Ctrl; % Ctrl, EGFR(L747-S752del, P753S) (kinases [3]; [9]): 100 % Ctrl; % Ctrl, EGFR(L747-T751del, Sins) (kinases [3]; [10]): 94 % Ctrl; % Ctrl, FLT3(ITD) (kinases [3]; target FLT3(ITD)): 72 % Ctrl; % Ctrl, FLT3(ITD, D835V) (kinases [3]; target FLT3(ITD, D835V)): 35 % Ctrl; % Ctrl, FLT3(ITD, F691L) (kinases [3]; target FLT3(ITD, F691L)): 59 % Ctrl; % Ctrl, ABL1(Q252H)-nonphosphorylated (kinases [4]; [11]): 93 % Ctrl; % Ctrl, ABL1(Q252H)-phosphorylated (kinases [4]; [12]): 100 % Ctrl; % Ctrl, KIT(V559D, T670I) (kinases [5]; target KIT(V559D, T670I)): 97 % Ctrl; % Ctrl, ABL1(T315I)-nonphosphorylated (kinases [6]; [13]): 93 % Ctrl; % Ctrl, ABL1(T315I)-phosphorylated (kinases [6]; [14]): 83 % Ctrl; % Ctrl, EGFR(G719C) (kinases [7]; target EGFR(G719C)): 92 % Ctrl
Cc1cc2c([nH]1)/C=C1\C(=O)Nc3ccc(cc31)-c1cnn(C)c1CN(C)CCN(C)C2=O [Ex. 126, [3a(4)Z]-6,9,12,14-tetramethyl-9,10,11,12,13,14-hexahydro-1,17-(ethanediylidene)pyrazolo[4,3-m]dipyrrolo[3,2-f:3′,4′-i][1,4]diazacyclopentadecine-3,8(2H,5H)-dione]	0 % Ctrl	6.3 % Ctrl	84 % Ctrl	1.8 % Ctrl	14 % Ctrl	27 % Ctrl	0.4 % Ctrl	0 % Ctrl	2.5 % Ctrl	1.7 % Ctrl	0.75 % Ctrl	3.6 % Ctrl	0 % Ctrl	0 % Ctrl	86 % Ctrl	–
Cc1cc2c([nH]1)/C=C1\C(=O)Nc3cc(Cl)c(cc31)OCCO[C@@H](C(=O)N1CCN(C)CC1)CN(C)C2=O [Ex. 138, [7R,16a(17)Z]-19-chloro-2,5-dimethyl-7-(4-methylpipearazine-1-carbonyl)-6,7,9,10-tetrahydro-1H-12,14-(ethanediylidene)dipyrrolo[3,2-i:3′,4′-l][1,4,7]dioxazacyclopentadecine-4,16(5H,15H)-dione]	–	–	–	–	–	–	–	–	–	–	–	–	–	–	–	% Ctrl, FLT3(N841I) (kinases [1]; target FLT3(N841I)): 68 % Ctrl; % Ctrl, KIT-autoinhibited (kinases [2]; target KIT-autoinhibited): 96 % Ctrl; % Ctrl, KIT (kinases [2]; target KIT): 90 % Ctrl; % Ctrl, EGFR(L747-E749del, A750P) (kinases [3]; [8]): 100 % Ctrl; % Ctrl, EGFR(L747-S752del, P753S) (kinases [3]; [9]): 61 % Ctrl; % Ctrl, EGFR(L747-T751del, Sins) (kinases [3]; [10]): 96 % Ctrl; % Ctrl, FLT3(ITD) (kinases [3]; target FLT3(ITD)): 73 % Ctrl; % Ctrl, FLT3(ITD, D835V) (kinases [3]; target FLT3(ITD, D835V)): 24 % Ctrl; % Ctrl, FLT3(ITD, F691L) (kinases [3]; target FLT3(ITD, F691L)): 49 % Ctrl; % Ctrl, ABL1(Q252H)-nonphosphorylated (kinases [4]; [11]): 100 % Ctrl; % Ctrl, ABL1(Q252H)-phosphorylated (kinases [4]; [12]): 98 % Ctrl; % Ctrl, KIT(V559D, T670I) (kinases [5]; target KIT(V559D, T670I)): 73 % Ctrl; % Ctrl, ABL1(T315I)-nonphosphorylated (kinases [6]; [13]): 87 % Ctrl; % Ctrl, ABL1(T315I)-phosphorylated (kinases [6]; [14]): 76 % Ctrl; % Ctrl, EGFR(G719C) (kinases [7]; target EGFR(G719C)): 100 % Ctrl

The next lines start with results.

% Ctrl, FLT3(N841I) (kinases [1]; FLT3(N841I))	% Ctrl, KIT (kinases [2]; KIT)	% Ctrl, KIT-autoinhibited (kinases [2]; KIT-autoinhibited)	% Ctrl, EGFR(L747-E749del, A750P) (kinases [3]; EGFR(L747-E749del, A750P))	% Ctrl, EGFR(L747-S752del, P753S) (kinases [3]; EGFR(L747-S752del, P753S))	% Ctrl, EGFR(L747-T751del, Sins) (kinases [3]; EGFR(L747-T751del, Sins))	% Ctrl, FLT3(ITD) (kinases [3]; FLT3(ITD))	% Ctrl, FLT3(ITD, D835V) (kinases [3]; FLT3(ITD, D835V))	% Ctrl, FLT3(ITD, F691L) (kinases [3]; FLT3(ITD, F691L))	% Ctrl, ABL1(Q252H)-nonphosphorylated (kinases [4]; ABL1(Q252H)-nonphosphorylated)	% Ctrl, ABL1(Q252H)-phosphorylated (kinases [4]; ABL1(Q252H)-phosphorylated)	% Ctrl, KIT(V559D, T670I) (kinases [5]; KIT(V559D, T670I))	% Ctrl, ABL1(T315I)-nonphosphorylated (kinases [6]; ABL1(T315I)-nonphosphorylated)	% Ctrl, ABL1(T315I)-phosphorylated (kinases [6]; ABL1(T315I)-phosphorylated)	% Ctrl, EGFR(G719C) (kinases [7]; EGFR(G719C))	Structure (SMILES)	also measured
65 % Ctrl	100 % Ctrl	100 % Ctrl	73 % Ctrl	95 % Ctrl	81 % Ctrl	100 % Ctrl	71 % Ctrl	100 % Ctrl	87 % Ctrl	74 % Ctrl	100 % Ctrl	97 % Ctrl	100 % Ctrl	93 % Ctrl	Cc1cc2c([nH]1)/C=C1\C(=O)Nc3ccc(nc31)-c1ccccc1OCCCNC2=O [Ex.22, [3a(4)Z]-6-methyl-9,10,11,12-tetrahydro-1,18-(ethanediylidene)dipyrrolo[3,2-g:3′,4′-j][1,5,12]benzoxadiazacyclopentadecine-3,8(2H,5H)-dione]	–
26 % Ctrl	60 % Ctrl	94 % Ctrl	83 % Ctrl	87 % Ctrl	99 % Ctrl	35 % Ctrl	3.2 % Ctrl	6.1 % Ctrl	32 % Ctrl	18 % Ctrl	3.9 % Ctrl	84 % Ctrl	46 % Ctrl	89 % Ctrl	Cc1cc2c([nH]1)/C=C1\C(=O)Nc3cc(Cl)c(cc31)OCCO[C@@H](C(=O)NC1CCNCC1)CN(C)C2=O [Ex. 134, [7R,16a(17)Z]-19-chloro-2,5-dimethyl-4,16-dioxo-N-(piperidin-4-yl)-4,5,6,7,9,10,15,16-octahydro-1H-12,14-(ethaneidylidene)dipyrrolo[3,2-i:3′,4′-l][1,4,7]dioxazacyclopentadecine-7-carboxamide]	–
19 % Ctrl	65 % Ctrl	75 % Ctrl	100 % Ctrl	100 % Ctrl	100 % Ctrl	26 % Ctrl	2.8 % Ctrl	5.6 % Ctrl	61 % Ctrl	49 % Ctrl	7.4 % Ctrl	94 % Ctrl	78 % Ctrl	92 % Ctrl	Cc1cc2c([nH]1)/C=C1\C(=O)Nc3cc(Cl)c(cc31)OCCO[C@@H](C(=O)NC1CNC1)CN(C)C2=O [Ex. 133, [7R,16a(17)Z]-N-(azetidin-3-yl)-19-chloro-2,5-dimethyl-4,16-dioxo-4,5,6,7,9,10,15,16-octahydro-1H-12,14-(ethanediylidene)dipyrrolo[3,2-i:3′,4′-l][1,4,7]dioxazacyclopentadecine-7-carboxamide]	–
